Test results published in the NIST ThermoML archive (doi:10.1016/j.fluid.2018.07.032).
± gives the expanded uncertainty stated by the source.

Conditions: 1825 kPa, Liquid, Pendant drop shape

Row | SMILES | interfacial tension (383 K) [mN/m] | interfacial tension (403 K) [mN/m] | interfacial tension (423 K) [mN/m] | interfacial tension (443 K) [mN/m]
1 | Cc1ccccc1 [toluene] + O | 28.6 ± 0.1 | 26.4 ± 0.1 | 23.8 ± 0.2 | 20.2 ± 0.2
2 | CCCCCCCCCCCC [dodecane] + O | 40 ± 0.2 | 36.5 ± 0.2 | 32.9 ± 0.2 | 28.5 ± 0.2
